In patent US11149018B2, “Substituted N-arylethyl-2-aminoquinoline-4-carboxamides and use thereof” (Bayer Aktiengesellschaft, priority 2017, dated 2021):

Biological target: FP receptor (Homo sapiens (Human), UniProt P43088)
Assay: In vitro test of inhibition of human FP receptor activity (PGF2α-induced calcium flux in FP-expressing CHEM1 cells)
Assay type: cell-based
Details: PGF2α 2 nM, some mean values of multiple determinations
How it was run: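 FP antagonism in FP-expressing CHEM1 cells loaded with Fluo-8. Compound preincubated 10 min at 37° C, then receptor stimulated with 2 nM (final) PGF2α in calcium-free Tyrode with 2 mM CaCl2.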

FP receptor, sequence (P43088 whole entry): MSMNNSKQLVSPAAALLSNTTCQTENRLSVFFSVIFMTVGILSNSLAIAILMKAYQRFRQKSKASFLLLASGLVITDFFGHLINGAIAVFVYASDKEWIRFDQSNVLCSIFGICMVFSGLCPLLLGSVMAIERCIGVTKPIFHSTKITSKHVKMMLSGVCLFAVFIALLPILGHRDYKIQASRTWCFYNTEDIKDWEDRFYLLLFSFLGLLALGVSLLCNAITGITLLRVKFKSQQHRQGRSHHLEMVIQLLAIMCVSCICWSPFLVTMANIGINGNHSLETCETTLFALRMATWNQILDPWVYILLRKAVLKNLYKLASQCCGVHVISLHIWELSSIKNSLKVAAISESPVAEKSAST

| IC50 | SMILES |
| --- | --- |
| 28 nM | Cc1c(N2CCCC(F)(F)C2)nc2ccc(Br)cc2c1C(=O)NCC(CCC(=O)O)c1cc(F)ccc1F (racemic) [Example 261, (+/−)-5-({[6-Bromo-2-(3,3-difluoropiperidin-1-yl)-3-methylquinolin-4-yl]carbonyl}amino)-4-(2,5-difluorophenyl)pentanoic acid] |
| 8.7 nM | Cc1c(N2CC=CCC2)nc2ccc(Br)cc2c1C(=O)NCC(CCC(=O)O)c1ccccc1Cl (single isomer, unassigned) [Example 30, 5-({[6-Bromo-2-(3,6-dihydropyridin-1(2H)-yl)-3-methylquinolin-4-yl]carbonyl}amino)-4-(2-chlorophenyl)pentanoic acid] |
| 29 nM | Cc1c(N2CC=CCC2)nc2ccc(Br)cc2c1C(=O)NCC(CCC(=O)O)c1ccccc1Cl (single isomer, unassigned) [Example 31, 5-({[6-Bromo-2-(3,6-dihydropyridin-1(2H)-yl)-3-methylquinolin-4-yl]carbonyl}amino)-4-(2-chlorophenyl)pentanoic acid] |
| 4.1 nM | Cc1c(N2CCCC(F)C2)nc2ccc(Br)cc2c1C(=O)NCC(CCC(=O)O)c1ccccc1C(F)(F)F (single isomer, unassigned) [Example 191, 5-[({6-Bromo-2-[3-fluoropiperidin-1-yl]-3-methylquinolin-4-yl}carbonyl)amino]-4-[2-(trifluoromethyl)phenyl]pentanoic acid] |
| 5.6 nM | Cc1c(N2CCCC(F)C2)nc2ccc(Br)cc2c1C(=O)NCC(CCC(=O)O)c1ccccc1C(F)(F)F (single isomer, unassigned) [Example 192, 5-[({6-Bromo-2-[3-fluoropiperidin-1-yl]-3-methylquinolin-4-yl}carbonyl)amino]-4-[2-(trifluoromethyl)phenyl]pentanoic acid] |
| 77 nM | CCC1CCCN(c2nc3ccc(Br)cc3c(C(=O)NCC(CCC(=O)O)c3ccccc3C(F)(F)F)c2C)C1 (single isomer, unassigned) [Example 195, 5-[({6-Bromo-2-[3-ethylpiperidin-1-yl]-3-methylquinolin-4-yl}carbonyl)amino]-4-[2-(trifluoromethyl)phenyl]pentanoic acid] |
| 9.5 nM | CCC1CCCN(c2nc3ccc(Br)cc3c(C(=O)NCC(CCC(=O)O)c3ccccc3OC(F)(F)F)c2C)C1 (single isomer, unassigned) [Example 206, 5-[({6-Bromo-2-[3-ethylpiperidin-1-yl]-3-methylquinolin-4-yl}carbonyl)amino]-4-[2-(trifluoromethoxy)phenyl]pentanoic acid] |
| 0.76 nM | Cc1c(N2CCCCCC2)nc2ccc(Br)cc2c1C(=O)NCC(CCC(=O)O)c1c(F)ccc(F)c1Cl (single isomer, unassigned) [Example 220, 5-({[2-(Azepan-1-yl)-6-bromo-3-methylquinolin-4-yl]carbonyl}amino)-4-(2-chloro-3,6-difluorophenyl)pentanoic acid] |
| 8.4 nM | Cc1c(N2CCCC(F)C2)nc2ccc(Br)cc2c1C(=O)NCC(CCC(=O)O)c1c(Cl)ccc(Cl)c1Cl (single isomer, unassigned) [Example 221, 5-[({6-Bromo-2-[3-fluoropiperidin-1-yl]-3-methylquinolin-4-yl}carbonyl)amino]-4-(2,3,6-trichlorophenyl)pentanoic acid] |
| 3 nM | Cc1c(N2CCCC(F)C2)nc2ccc(Br)cc2c1C(=O)NCC(CCC(=O)O)c1c(Cl)ccc(Cl)c1Cl (single isomer, unassigned) [Example 222, 5-[({6-Bromo-2-[3-fluoropiperidin-1-yl]-3-methylquinolin-4-yl}carbonyl)amino]-4-(2,3,6-trichlorophenyl)pentanoic acid] |
| 140 nM | Cc1c(N2CCCC(F)C2)nc2ccc(Br)cc2c1C(=O)NCC(CCC(=O)O)c1c(Cl)ccc(Cl)c1Cl (single isomer, unassigned) [Example 223, 5-[({6-Bromo-2-[3-fluoropiperidin-1-yl]-3-methylquinolin-4-yl}carbonyl)amino]-4-(2,3,6-trichlorophenyl)pentanoic acid] |
| 38 nM | Cc1c(N2CCCC(F)C2)nc2ccc(Br)cc2c1C(=O)NCC(CCC(=O)O)c1c(Cl)ccc(Cl)c1Cl (single isomer, unassigned) [Example 224, 5-[({6-Bromo-2-[3-fluoropiperidin-1-yl]-3-methylquinolin-4-yl}carbonyl)amino]-4-(2,3,6-trichlorophenyl)pentanoic acid] |
| 120 nM | Cc1c(N2CCCC2)nc2ccc(Br)cc2c1C(=O)NCC(CCC(=O)O)c1c(F)cccc1F (single isomer, unassigned) [Example 248, 5-({[6-Bromo-3-methyl-2-(pyrrolidin-1-yl)quinolin-4-yl]carbonyl}amino)-4-(2,6-difluorophenyl)pentanoic acid] |
| 92 nM | Cc1c(N2CCCCC2)nc2ccc(Br)cc2c1C(=O)NCC(CC(=O)O)c1c(F)cccc1Cl (single isomer, unassigned; (+)) [Example 3, (+)-4-({[6-Bromo-3-methyl-2-(piperidin-1-yl)quinolin-4-yl]carbonyl}amino)-3-(2-chloro-6-fluorophenyl)butanoic acid] |
| 6.6 nM | Cc1c(N2CCCCC2)nc2ccc(Br)cc2c1C(=O)NCC(CCC(=O)O)c1cc(F)ccc1Cl (single isomer, unassigned; (+)) [Example 7, (+)-5-({[6-Bromo-3-methyl-2-(piperidin-1-yl)quinolin-4-yl]carbonyl}amino)-4-(2-chloro-5-fluorophenyl)pentanoic acid] |
| 21 nM | Cc1c(N2CCSCC2)nc2ccc(Br)cc2c1C(=O)NCC(CCC(=O)O)c1ccccc1Cl (single isomer, unassigned; (+)) [Example 26, (+)-5-({[6-Bromo-3-methyl-2-(thiomorpholin-4-yl)quinolin-4-yl]carbonyl}amino)-4-(2-chlorophenyl)pentanoic acid] |
| 62 nM | Cc1c(N2CCCO2)nc2ccc(Br)cc2c1C(=O)NCC(CCC(=O)O)c1ccccc1Cl (single isomer, unassigned; (+)) [Example 40, (+)-5-({[6-Bromo-3-methyl-2-(1,2-oxazolidin-2-yl)quinolin-4-yl]carbonyl}amino)-4-(2-chlorophenyl)pentanoic acid] |
| 120 nM | Cc1c(N2CCCC(C)(C)C2)nc2ccc(Br)cc2c1C(=O)NCC(CCC(=O)O)c1ccccc1Cl (single isomer, unassigned; (+)) [Example 44, (+)-5-({[6-Bromo-2-(3,3-dimethylpiperidin-1-yl)-3-methylquinolin-4-yl]carbonyl}amino)-4-(2-chlorophenyl)pentanoic acid] |
| 14 nM | Cc1c(N2CCCC(C)C2)nc2ccc(Br)cc2c1C(=O)NCC(CCC(=O)O)c1ccccc1Cl (single isomer, unassigned; (+)) [Example 47, (+)-5-[({6-Bromo-3-methyl-2-[3-methylpiperidin-1-yl]quinolin-4-yl}carbonyl)amino]-4-(2-chlorophenyl)pentanoic acid] |
| 1.2 nM | Cc1c(N2CCCC(C)C2)nc2ccc(Br)cc2c1C(=O)NCC(CCC(=O)O)c1ccccc1Cl (single isomer, unassigned; (+)) [Example 48, (+)-5-[({6-Bromo-3-methyl-2-[3-methylpiperidin-1-yl]quinolin-4-yl}carbonyl)amino]-4-(2-chlorophenyl)pentanoic acid] |
| 7.1 nM | Cc1c(N2CCCC(F)(F)C2)nc2ccc(Br)cc2c1C(=O)NCC(CCC(=O)O)c1ccccc1Cl (single isomer, unassigned; (+)) [Example 52, (+)-5-({[6-Bromo-2-(3,3-difluoropiperidin-1-yl)-3-methylquinolin-4-yl]carbonyl}amino)-4-(2-chlorophenyl)pentanoic acid] |
| 6.5 nM | Cc1c(N2CC[C@@H](F)C2)nc2ccc(Br)cc2c1C(=O)NCC(CCC(=O)O)c1ccccc1Cl (single isomer, unassigned; (+)) [Example 67] |
| 14 nM | Cc1c(N2CC[C@@H](F)C2)nc2ccc(Br)cc2c1C(=O)NCC(CCC(=O)O)c1ccccc1Cl (single isomer, unassigned; (+)) [Example 68] |
| 3.9 nM | Cc1c(N2CCC[C@H]2C)nc2ccc(Br)cc2c1C(=O)NCC(CCC(=O)O)c1ccccc1Cl (single isomer, unassigned; (+)) [Example 82] |
| 6.4 nM | Cc1c(N2CCC[C@H]2C)nc2ccc(Br)cc2c1C(=O)NCC(CCC(=O)O)c1ccccc1Cl (single isomer, unassigned; (+)) [Example 83] |
| 9.9 nM | Cc1c(N2CCCCC2)nc2ccc(Br)cc2c1C(=O)NCC(CCC(=O)O)c1ccccc1C(F)(F)F (single isomer, unassigned; (+)) [Example 113, (+)-5-({[6-Bromo-3-methyl-2-(piperidin-1-yl)quinolin-4-yl]carbonyl}amino)-4-[2-(trifluoromethyl)phenyl]pentanoic acid] |
| 29 nM | Cc1c(N2CCCC2)nc2ccc(Br)cc2c1C(=O)NCC(CCC(=O)O)c1ccccc1C(F)(F)F (single isomer, unassigned; (+)) [Example 115, (+)-5-({[6-Bromo-3-methyl-2-(pyrrolidin-1-yl)quinolin-4-yl]carbonyl}amino)-4-[2-(trifluoromethyl)phenyl]pentanoic acid] |

| SMILES | IC50 |
| --- | --- |
| CCC1CCCN(c2nc3ccc(Br)cc3c(C(=O)NCC(CCC(=O)O)c3ccccc3Cl)c2C)C1 (single isomer, unassigned; (+)) [Example 58, (+)-5-[({6-Bromo-2-[3-ethylpiperidin-1-yl]-3-methylquinolin-4-yl}carbonyl)amino]-4-(2-chlorophenyl)pentanoic acid] | 0.52 nM |
| CCC1CCCN(c2nc3ccc(Br)cc3c(C(=O)NCC(CCC(=O)O)c3ccccc3Cl)c2C)C1 (single isomer, unassigned; (+)) [Example 61, (+)-5-[({6-Bromo-2-[3-ethylpiperidin-1-yl]-3-methylquinolin-4-yl}carbonyl)amino]-4-(2-chlorophenyl)pentanoic acid] | 0.83 nM |
